Literature values in US10226421B2, “Pharmaceutical composition containing budesonide and formoterol” (Zambon S.P.A., priority 2013, dated 2019).

Conditions: phospholipids in the presence of a humidity
For CCCCCCCCCCCCCCCC(=O)OC[C@H](COP(=O)([O-])OCC[N+](C)(C)C)OC(=O)CCCCCCCCCCCCCCC [DPPC, dipalmitoyl-phosphatidylcholine], the “glass-rubber transition temperatures (Tg)” value is given as 41 °C.
In the case of CCCCCCCCCCCCCCCC(=O)OCC(COP(=O)(O)OCCN)OC(=O)CCCCCCCCCCCCCCC (stereo not drawn) [DPPE, dipalmitoyl-phosphatidylethanolamine], the “glass-rubber transition temperatures (Tg)” value is listed as 63 °C.
In the case of CCCCCCCCCCCCCCCCCC(=O)OC[C@H](COP(=O)([O-])OCC[N+](C)(C)C)OC(=O)CCCCCCCCCCCCCCCCC [DSPC, distearoyl-phosphatidylcholine], the “glass-rubber transition temperatures (Tg)” value is listed as 55 °C.
